Assay results reported in patent US20240123022A1, “A STABLE ANTI-ANGIOGENIC AND ANTI-INFLAMMATORY PHARMACEUTICAL FORMULATION AND PHARMACEUTICAL COMBINATION FOR TREATMENT AND PREVENTION OF PSORIASIS” (priority 2021, published 2024).
Read-outs that look alike come from different tables or passages of the source.

Columns and labels:
in vitro = details: human, microsomes
Description: (§2) Metabolic stability assay was performed to determine in vitro half-life and intrinsic clearance of test item. […] Following centrifugation, the supernatant was analyzed on HPLC-UV.

[1] = Stability of IS217 1% cream, long term 30° C. ± 2° C./65% RH; format: physicochemical; details: 24 months at room temperature
Description: (§1) The purpose of stability testing is to provide evidence on how the quality of a drug product varies with time under the influence of a variety of environmental factors such as temperature, humidity, etc. and to establish a re-test period for the drug substance or a shelf life for the drug product and recommended storage conditions. The study was conducted according to the WHO and schedule-Y guidelines.
The drug product was manufactured by Issar Pharma. Three batches were manufactured at pilot scale level by the same synthetic route as, and using a method of manufacture and procedure that simulates the final process to be used for, production batches. The overall quality of the batches of drug product placed on these stability studies will be representative of the quality of the material to be made on a production scale.
A soft squeezable plastic tube will be used as primary packing material. The tube is a cylindrical, hollow piece with a rounded shape design.
This study has included testing of those attributes of the drug product that are susceptible to change during storage and are likely to influence quality, safety and/or efficacy. The testing was covered, as appropriate, the physical and chemical attributes. […]

[2] = Stability of IS217 API, long-term condition −20 ± 5° C.; format: physicochemical; details: for Appearance, change / Assessment of container closure system, change / Clarity of solution, change / Color of Solution, change / Color, change / Odor, change: long-term −20 ± 5° C.
Description: as §1, with “of a drug substance or drug product” for “of a drug product”, “WHO and Schedule-Y guidelines.” for “WHO and schedule-Y guidelines.”
The drug substance is a lyophilized white fluffy powder, and it was filled at sterile condition in glass injection vial which has airlock-rubber capping. This container closure system is the same as or simulates the packaging proposed for storage and distribution.
This study has included testing of those attributes of the drug substance that are susceptible to change during storage and are likely to influence quality, safety and/or efficacy. The testing was covered, as appropriate, the physical and chemical attributes.
The following test attributes have been selected according to above said guidelines. • Appearance; odour; colour; colour of solution (when the drug substance is soluble in solvent); clarity of solution; degradation and assessment of container closure system
Testing frequency for long-term studies have been designed as per schedule Y. […]
The studies were conducted under appropriate storage conditions (with appropriate tolerances) that test drug substance thermal stability and its sensitivity to moisture. The drug substance is intended to store for 24 months. Accordingly, long term stability studies were done for 24 months. The details of the storage conditions have been furnished hereunder.
23.4: Long term stability study results Name of the Product: IS217; Batch size: 200 m·mol; Storage Conditions: −20±5° C.

human plasma proteins [3] = test system: human plasma proteins
Description: (§3) Test item at concentration of about 100 μg/ml was incubated with human plasma at 37° C. in water bath for about 1 hour. About 500 μL of test solution was transferred to ultrafiltration devices and centrifuged for about 15 minutes at about 13000 rpm and at 37° C. and analyzed using HPLC method.

[4] = human, microsomes
Description: as §2

human plasma proteins [5] = test: in vitro
Description: as §3

[6] = test system: human endothelial cell line (EA.hy926); details: EA.hy926, 1-5000 μg/ml, 72 h
Description: Here MTT assay and BioTek Synergy HT multimode reader were used to determine the cell viability in test cells. […] Once within about 72 hours of incubation, re-treatment was done for test items at every 24 hours in 3 additions. 150 μl of DMSO was added to aspirated supernatant and observed at 540 nm using BioTek Synergy HT plate reader.

HUVEC cells = test: Tube formation assay in HUVEC cells (VEGF induced); format: cell-based, human; parameters: Tube formation assay results, Avg: scale not given here
Description: HUVEC cells were used as test system to determine angiogenic effect of IS217 by assessing the inhibitory effects of test item on endothelial cells tube formation. Prior to the tube formation assay, test item of concentration ranging 0.01 μg/ml to 1000 μg/ml were used to treat endothelial cells for its cytotoxicity effect to assess suitable concentration for tube formation assay. […] The cells corresponding to positive control group were treated with bevacizumab of concentration 1000 μg/ml. The degree of angiogenesis progression was assessed based on visual pattern recognition of photomicrographs of HUVEC cells.

Substance: H-FAKKFAKKFK-OH [IS217, H-Phe-Ala-Lys-Lys-Phe-Ala-Lys-Lys-Phe-Lys-OH]
- half-life at 100 μg/ml (in vitro): 47.9 min
- metabolised at 1 h, 100 μg/ml (in vitro): ~58%
- microsomal CLint at 100 μg/ml (in vitro): 14.5 µL/min/mg
- stability of drug product (1% cream) [1]: stable
- stability of IS217 API ([2]; 6 months at long term stability condition −20 ± 5° C.): stable
- Appearance, change ([2]; 1st month): No change
- Assessment of container closure system, change ([2]; 1st month): No change
- Clarity of solution, change ([2]; 1st month): No change
- Color of Solution, change ([2]; 1st month): No change
- Color, change ([2]; 1st month): No change
- Odor, change ([2]; 1st month): No change
- Appearance, change ([2]; 2nd month): No change
- Assessment of container closure system, change ([2]; 2nd month): No change
- Clarity of solution, change ([2]; 2nd month): No change
- Color of Solution, change ([2]; 2nd month): No change
- Color, change ([2]; 2nd month): No change
- Odor, change ([2]; 2nd month): No change
- Appearance, change ([2]; 3rd month): No change
- Assessment of container closure system, change ([2]; 3rd month): No change
- Clarity of solution, change ([2]; 3rd month): No change
- Color of Solution, change ([2]; 3rd month): No change
- Color, change ([2]; 3rd month): No change
- Odor, change ([2]; 3rd month): No change
- Appearance, change ([2]; 6th month): No change
- Assessment of container closure system, change ([2]; 6th month): No change
- Clarity of solution, change ([2]; 6th month): No change
- Color of Solution, change ([2]; 6th month): No change
- Color, change ([2]; 6th month): No change
- Odor, change ([2]; 6th month): No change
- API calculated on the anhydrous basis (OAB) ([2]; −20 ± 5° C., 1 M): 98.98%
- Related substances (By HPLC), Any Max. Impurity ([2]; −20 ± 5° C., 1 M): 0.64%
- Related substances (By HPLC), Total Impurity ([2]; −20 ± 5° C., 1 M): 0.85%
- Solubility (Soluble in water) ([2]; −20 ± 5° C., 1 M): Complies
- Water Content (By Karl Fischer-Titrator) ([2]; −20 ± 5° C., 1 M): 4.89% w/w
- API calculated on the anhydrous basis (OAB) ([2]; −20 ± 5° C., 2 M): 99.14%
- Related substances (By HPLC), Any Max. Impurity ([2]; −20 ± 5° C., 2 M): 0.64%
- Related substances (By HPLC), Total Impurity ([2]; −20 ± 5° C., 2 M): 0.85%
- Solubility (Soluble in water) ([2]; −20 ± 5° C., 2 M): Complies
- Water Content (By Karl Fischer-Titrator) ([2]; −20 ± 5° C., 2 M): 4.83% w/w
- API calculated on the anhydrous basis (OAB) ([2]; −20 ± 5° C., 3 M): 99.15%
- Related substances (By HPLC), Any Max. Impurity ([2]; −20 ± 5° C., 3 M): 0.72%
- Related substances (By HPLC), Total Impurity ([2]; −20 ± 5° C., 3 M): 0.85%
- Solubility (Soluble in water) ([2]; −20 ± 5° C., 3 M): Complies
- Water Content (By Karl Fischer-Titrator) ([2]; −20 ± 5° C., 3 M): 4.52% w/w
- API calculated on the anhydrous basis (OAB) ([2]; −20 ± 5° C., 6 M): 99.40%
- Related substances (By HPLC), Any Max. Impurity ([2]; −20 ± 5° C., 6 M): 0.35%
- Related substances (By HPLC), Total Impurity ([2]; −20 ± 5° C., 6 M): 0.61%
- Solubility (Soluble in water) ([2]; −20 ± 5° C., 6 M): Complies
- Water Content (By Karl Fischer-Titrator) ([2]; −20 ± 5° C., 6 M): 4.99% w/w
- API calculated on the anhydrous basis (OAB) ([2]; −20 ± 5° C., Initial): 99.28%
- Related substances (By HPLC), Any Max. Impurity ([2]; −20 ± 5° C., Initial): 0.60%
- Related substances (By HPLC), Total Impurity ([2]; −20 ± 5° C., Initial): 0.72%
- Remark ([2]; −20 ± 5° C., Initial): Complies
- Solubility (Soluble in water) ([2]; −20 ± 5° C., Initial): Complies
- Water Content (By Karl Fischer-Titrator) ([2]; −20 ± 5° C., Initial): 4.66% w/w
- binding affinity to human plasma proteins (human plasma proteins [3]): moderate binding affinity
- metabolic stability [4]: moderately metabolically stable
- fraction unbound at 1 hour, 100 μg/ml (human plasma proteins [5]): 0.466
- fraction unbound at 1 hour, 100 μg/ml (human plasma proteins [5]; free fraction): 0.466 ± 0.03
- percentage inhibition of FBS induced proliferation of endothelial cells [6]: effective upto 2000 μg/ml only
- Tube formation assay results, Avg (HUVEC cells; 100 μg + VEGF): 2.55
- Tube formation assay results, Avg (HUVEC cells; 100 μg, without VEGF): 0.33
- Tube formation assay results, Avg (HUVEC cells; 250 μg + VEGF): 1.33
- Tube formation assay results, Avg (HUVEC cells; 250 μg, without VEGF): 0.33
- Tube formation assay results, Avg (HUVEC cells; 500 μg + VEGF): 0.88
- Tube formation assay results, Avg (HUVEC cells; 500 μg, without VEGF): 0.33
- Tube formation assay results, Avg (HUVEC cells; 1000 μg + VEGF): 0.55
- Tube formation assay results, Avg (HUVEC cells; 1000 μg, without VEGF): 0.33
- inhibition of endothelial morphogenesis on matrigel (HUVEC cells; HUVEC, 1000 μg/ml): Complete inhibition
- endothelial tube formation (HUVEC cells; HUVEC, all test concentrations 100 μg/ml to 1000 μg/ml): block endothelial tube formation
